Experimental data as given in PubChem BioAssay (NCI).
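Each compound was tested at five concentrations against cells in 96-well plates for 48 hours. GI50: concentration for 50% inhibition of growth. TGI: concentration producing complete growth inhibition.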

Experiments:
Assay in all cases: growth of human tumour cells (NCI), 48 h
SW-620 colon = test system: SW-620 colon
K-562 leukemia = test system: K-562 leukemia
UACC-257 melanoma = test system: UACC-257 melanoma
HOP-62 NSCLC = test system: HOP-62 NSCLC
SK-MEL-28 melanoma = test system: SK-MEL-28 melanoma
RXF 393 renal = test system: RXF 393 renal
ACHN renal = test system: ACHN renal
NCI-H23 lung = test system: NCI-H23 lung
SNB-19 CNS = test system: SNB-19 CNS
HL-60(TB) leukemia = test system: HL-60(TB) leukemia
MOLT-4 leukemia = test system: MOLT-4 leukemia
M14 melanoma = test system: M14 melanoma
SF-539 CNS = test system: SF-539 CNS
UACC-62 melanoma = test system: UACC-62 melanoma
KM20L2 colon = test system: KM20L2 colon
IGROV1 ovarian = test system: IGROV1 ovarian

Structure (SMILES)	TGI (SW-620 colon)	TGI (K-562 leukemia)	TGI (UACC-257 melanoma)	TGI (HOP-62 NSCLC)	TGI (SK-MEL-28 melanoma)	TGI (RXF 393 renal)	TGI (ACHN renal)	TGI (NCI-H23 lung)	TGI (SNB-19 CNS)	TGI (HL-60(TB) leukemia)	TGI (MOLT-4 leukemia)	TGI (M14 melanoma)	TGI (SF-539 CNS)	TGI (UACC-62 melanoma)	TGI (KM20L2 colon)	TGI (IGROV1 ovarian)	GI50 (NCI-H23 lung)	GI50 (MOLT-4 leukemia)	GI50 (SF-539 CNS)	GI50 (KM20L2 colon)
CCN(CC)CCCNC(=O)c1ccccc1Nc1c(Cl)cccc1Cl	30.1 µM	23 µM	7.45 µM	24.2 µM	9.51 µM	23 µM	21.8 µM	30.9 µM	29.1 µM	12.5 µM	27.9 µM	7.86 µM	23.7 µM	25.3 µM	5.58 µM	34 µM	–	–	–	–
O=C(N/N=C/c1cc(Cl)cc(Cl)c1[O-])c1ccccc1O.O=C(N/N=C/c1cc(Cl)cc(Cl)c1[O-])c1ccccc1O.[Cu+2]	1.97 µM	0.545 µM	0.914 µM	0.901 µM	8.79 µM	0.766 µM	1.57 µM	1.66 µM	2.05 µM	0.512 µM	2.12 µM	0.964 µM	1.02 µM	0.819 µM	2.28 µM	1.16 µM	0.436 µM	0.285 µM	0.306 µM	0.909 µM
O=C(N/N=C/c1cc(Cl)cc(Cl)c1[O-])c1ccccc1O.O=C(N/N=C/c1cc(Cl)cc(Cl)c1[O-])c1ccccc1O.[Fe+2]	48.2 µM	> 100 µM	85.8 µM	44.4 µM	40.6 µM	28.8 µM	27.7 µM	31.6 µM	46.2 µM	16.3 µM	> 100 µM	34.7 µM	28 µM	52.4 µM	27.9 µM	56.5 µM	6 µM	19.2 µM	10.4 µM	14.1 µM
